Experimental data taken from the NIST ThermoML archive (doi:10.1021/acs.jced.6b00587).
± gives the expanded uncertainty stated by the source.

Conditions: Liquid, Ebulliometric method (Recirculating still)

CCCOCCC [dipropyl ether]
Conditions	vapor or sublimation pressure [kPa]
326.73 K	29.35 ± 0.78
332.57 K	36.71 ± 0.79
336.55 K	42.54 ± 0.81
341.15 K	49.98 ± 0.83
345.34 K	57.75 ± 0.85
346.55 K	60 ± 1
346.63 K	60 ± 1
347.55 K	62.3 ± 0.94
352.11 K	72.36 ± 0.91
354.82 K	78.97 ± 0.94
356.85 K	84.25 ± 0.96
358.73 K	89.3 ± 0.99
361.18 K	96.32 ± 1
362.87 K	101.3 ± 1

CCCCCCC [heptane]
Conditions	vapor or sublimation pressure [kPa]
331.39 K	26.15 ± 0.77
335.45 K	30.59 ± 0.78
341.94 K	38.89 ± 0.79
347.16 K	46.8 ± 0.81
349.68 K	50.97 ± 0.83
352.58 K	56.2 ± 0.84
354.63 K	60 ± 1
356.78 K	64.6 ± 0.89
359.38 K	70.24 ± 0.9
362.11 K	76.47 ± 0.92
364.95 K	83.45 ± 0.94
366.87 K	88.4 ± 1
371.28 K	101.3 ± 1

CCCCOCC [butyl ethyl ether]
Conditions	vapor or sublimation pressure [kPa]
336.22 K	38.6 ± 0.81
340.35 K	44.96 ± 0.82
344.21 K	51.67 ± 0.83
346.8 K	56.24 ± 0.84
348.84 K	60 ± 0.87
350.44 K	63.63 ± 0.9
354.01 K	71.58 ± 0.91
357.31 K	79.6 ± 0.95
361.44 K	90.59 ± 0.97
363.47 K	96.36 ± 0.99
365.25 K	101.3 ± 0.99
